Experimental data reported in US10632181B2, “Composition, containing RGD motif-containing peptide or fragment thereof, for treating burns and glaucoma, alleviating skin wrinkles, and promoting hair growth” (HUONS CO., LTD., priority 2014, dated 2020).
Positions of bridges follow the written chain, without caps; N, C: chain ends. No end group written: not given here.

How the values were obtained:
Format in all cases: in vivo, Women aged 30-65
[1] = system: wrinkles around eyes; assay: Survey of subjects about wrinkle reduction effectiveness
Experimental: Furthermore, surveying the subjects about effectiveness was conducted. The subjects were asked to personally make responses about the extent to which the subjects felt that wrinkles reduced after use of test product using 5 levels: better (4), a little bit better (3), no change (2), a little bit worse (1), worse (0). The researcher determined if test product has efficacy by calculating the percentage of the number of subjects for each response.

[2] = system: wrinkles around eyes; assay: Wrinkle extent around eyes by 3D imaging (PRIMOS Premium); conditions: for Rmax numerical value (maximum height of wrinkle profile) / Rp numerical value (maximum profile peak height) / Rv numerical value (maximum profile valley depth): in µm (unit assumed)
Experimental: Furthermore, the wrinkle extent was measured by 3D imaging. A target site to measure the wrinkle extent was regions around the eyes of the subjects, and the right side of the face was set as a measurement site. To measure the wrinkle extent, the subjects were allowed to wash the measurement site with water, and take a rest for 30 minutes in the waiting room under constant temperature constant humidity conditions of indoor temperature 20-25° C. and humidity 40-60% to acclimate the skin surface temperature and humidity to the environment of the measurement space, and were not permitted to drink water during the rest. For objective measurement, measurements were performed by one researcher, and the same site was measured at each time of the first visit before use and the second and third visits in 2 and 4 weeks after use. Before use and in 2 and 4 weeks after use, images of the site to which the test product (HU022 (SEQ ID NO:1)) was applied were formed using 3D skin imaging machine (PRIMOS Premium), and to verify if there is any difference in each of control group and experimental group in 4 weeks after use, wrinkle parameters, Ra, Rmax, Rt, Rp, Rv values, in the stored images of 2 weeks and 4 weeks after use relative to before use were analyzed.

[3] = system: wrinkles around eyes; assay: Expert visual assessment of wrinkles (global photodamage score); conditions: for expert visual assessment score: severity 0-7
Experimental: Furthermore, visual assessment was performed. At each visit before and after use, experts assessed the wrinkle extent by scoring using global photodamage score (Br J Dermatol. 2010; 162(3):497-502). To verify if there is any difference in each of control group and experimental group in 4 weeks after use, a change (%) in visual assessment scores of 2 weeks and 4 weeks after use relative to before use was analyzed. The visual assessment scores are as follows (Table 18): […]

[4] = system: wrinkles around eyes; assay: Wrinkle extent around eyes, skin replica, Visiometer SV600; set-up: R3 numerical value (average roughness): unit not given here
[5] = system: wrinkles around eyes; assay: as above; set-up: R3 numerical value (average roughness) / R1 numerical value (skin roughness) / R4 numerical value (smoothness depth) / R5 numerical value (arithmetic average roughness): unit not given here
Experimental: The extent of wrinkles around eyes was measured using equipment. A target site to measure the wrinkle extent was regions around the eyes of the subjects, and the left side and the right side of the face were set as a measurement site. To measure the wrinkle extent, the subjects were allowed to wash the measurement site with water, and take a rest for 30 minutes in the waiting room under constant temperature and constant humidity conditions of indoor temperature 20-25° C. and humidity 40-60% to acclimate the skin surface temperature and humidity to the environment of the measurement space, and were not permitted to drink water during the rest. For objective measurement, measurements were performed by one researcher, and the same site was measured at each time of the first visit before use and the second and third visits in 2 and 4 weeks after use. Transparency profilometry analysis was performed using Visiometer SV600 (Courage-Khazaka electronic GmbH, Germany) on skin replica of the site to which test product and control product were applied before use and 2 and 4 weeks after use, and to identify if there is any difference in each of control group and experimental group after use, a change (%) in R1, R2, R4, R5 measurement values in 2 and 4 weeks after use relative to before use was analyzed.

[6] = response 2 (fair), 4 weeks after use
[7] = response 3 (good), 4 weeks after use
[8] = response 4 (very good), 4 weeks after use

In the case of “HU024 (RPTRGDCDLPEFCPG; disulfide 7-13; listed as Homo sapiens)”, the “Number of subjects, wrinkle reduction survey” value ([1]; response 0 (very bad), 4 weeks after use) is reported as 0, the “Number of subjects, wrinkle reduction survey” value ([1]; response 1 (bad), 4 weeks after use) is reported as 0 and the “Number of subjects, wrinkle reduction survey” value [1, 6] is reported as 1. The “Percentage of subjects, wrinkle reduction survey” value [1, 6] was “(16.7) %”, the “Number of subjects, wrinkle reduction survey” value [1, 7] was 4 and the “Percentage of subjects, wrinkle reduction survey” value [1, 7] was “(66.7) %”. The “Number of subjects, wrinkle reduction survey” value [1, 8] was 1, the “Percentage of subjects, wrinkle reduction survey” value [1, 8] was “(16.7) %” and the “Mean of wrinkle reduction survey response” value ([1]; scale 0-4, 4 weeks after use) was 3.00. The “survey assessment about wrinkle reduction, test product versus control product” value ([1]; third visit, 4 weeks after use) was “test product was better at reducing wrinkles than control product”, the “Ra numerical value (roughness average of wrinkle profile)” value (“Ra numerical value” for short) ([2]; 2 weeks after use, twice daily) was 18.33 ± 2.12 and the “Rt numerical value (distance between highest peak and lowest valley)” value (“Rt numerical value” for short) ([2]; 2 weeks after use, twice daily) was 216.37 ± 41.76. The “Rmax numerical value (maximum height of wrinkle profile)” value (shortened to “Rmax numerical value”) ([2]; 2 weeks after use, twice daily) was 198.77 ± 39.74, the “Rp numerical value (maximum profile peak height)” value (from here on “Rp numerical value”) ([2]; 2 weeks after use, twice daily) was 155.24 ± 43.18 and the “Rv numerical value (maximum profile valley depth)” value (shortened to “Rv numerical value”) ([2]; 2 weeks after use, twice daily) was 61.12 ± 8.02. The “Ra numerical value” value ([2]; 4 weeks after use, twice daily) was 17.71 ± 2.43, the “Rt numerical value” value ([2]; 4 weeks after use, twice daily) was 210.60 ± 38.61 and the “Rmax numerical value” value ([2]; 4 weeks after use, twice daily) was 196.85 ± 39.02. The “Rp numerical value” value ([2]; 4 weeks after use, twice daily) was 153.78 ± 36.12, the “Rv numerical value” value ([2]; 4 weeks after use, twice daily) was 56.82 ± 12.01 and the “Ra numerical value” value ([2]; Before use) was 18.64 ± 3.19. The “Rt numerical value” value ([2]; Before use) was 225.94 ± 45.00, the “Change(%) in Ra” value ([2]; Before use-2 weeks after use) was −0.75% and the “Change(%) in Rmax” value ([2]; Before use-2 weeks after use) was −3.77%. For the same substance, the “Change(%) in Rp” value ([2]; Before use-2 weeks after use) was −3.48%, the “Change(%) in Rt” value ([2]; Before use-2 weeks after use) was −4.24% and the “Change(%) in Rv” value ([2]; Before use-2 weeks after use) was −6.10%. For the same substance, the “Change(%) in Ra” value ([2]; Before use-4 weeks after use) was −4.10%, the “Change(%) in Rmax” value ([2]; Before use-4 weeks after use) was −4.69% and the “Change(%) in Rp” value ([2]; Before use-4 weeks after use) was −4.40%. The “Change(%) in Rt” value ([2]; Before use-4 weeks after use) was −6.79%, the “Change(%) in Rv” value ([2]; Before use-4 weeks after use) was −12.71% and the “Rmax numerical value” value ([2]; Before use) was 206.55 ± 40.54. The “Rp numerical value” value ([2]; Before use) was 160.85 ± 37.51, the “Rv numerical value” value ([2]; Before use) was 65.09 ± 11.95 and the “expert visual assessment score” value ([3]; 2 weeks after use) was 2.00 ± 0.63. For the same substance, the “expert visual assessment score” value ([3]; 4 weeks after use) was 1.67 ± 0.82, the “expert visual assessment score” value ([3]; Before use) was 2.00 ± 0.63 and the “Change(%) in expert visual assessment score” value ([3]; Before use-2 weeks after use) was 0%. The “Change(%) in expert visual assessment score” value ([3]; Before use-4 weeks after use) was −16.67%, the “R3 numerical value (average roughness)” value ([4]; Before use) was 29.15 ± 5.56 and the “Change(%) in R3” value ([4]; Before use-2 weeks after use) was −28.66%. For the same substance, the “R1 numerical value (skin roughness)” value ([5]; 2 weeks after use, twice daily) was 57.29 ± 3.21, the “R2 numerical value (maximum roughness)” value ([5]; 2 weeks after use, twice daily) was 30.71 ± 6.57 and the “R3 numerical value (average roughness)” value ([5]; 2 weeks after use, twice daily) was 20.80 ± 3.97. For the same substance, the “R4 numerical value (smoothness depth)” value ([5]; 2 weeks after use, twice daily) was 26.24 ± 2.90, the “R5 numerical value (arithmetic average roughness)” value (from here on “R5 numerical value”) ([5]; 2 weeks after use, twice daily) was 11.58 ± 0.89 and the “R1 numerical value (skin roughness)” value ([5]; 4 weeks after use, twice daily) was 45.23 ± 13.77. For the same substance, the “R2 numerical value (maximum roughness)” value ([5]; 4 weeks after use, twice daily) was 28.67 ± 7.47, the “R3 numerical value (average roughness)” value ([5]; 4 weeks after use, twice daily) was 17.81 ± 4.00 and the “R4 numerical value (smoothness depth)” value ([5]; 4 weeks after use, twice daily) was 20.64 ± 6.07. For the same substance, the “R5 numerical value” value ([5]; 4 weeks after use, twice daily) was 8.42 ± 3.48, the “R1 numerical value (skin roughness)” value ([5]; Before use) was 71.33 ± 15.86 and the “R2 numerical value (maximum roughness)” value ([5]; Before use) was 46.06 ± 11.62. For the same substance, the “R4 numerical value (smoothness depth)” value ([5]; Before use) was 31.44 ± 11.04, the “R5 numerical value” value ([5]; Before use) was 13.52 ± 5.43 and the “Change(%) in R1” value ([5]; Before use-2 weeks after use) was −19.68%. The “Change(%) in R4” value ([5]; Before use-2 weeks after use) was −16.54%, the “Change(%) in R5” value ([5]; Before use-2 weeks after use) was −14.36% and the “Change(%) in R1” value ([5]; Before use-4 weeks after use) was −36.59%. The “Change(%) in R3” value ([5]; Before use-4 weeks after use) was −54.55%, the “Change(%) in R4” value ([5]; Before use-4 weeks after use) was −34.36% and the “Change(%) in R5” value ([5]; Before use-4 weeks after use) was −37.71%.
